Laboratory results from patent US10822337B2, “TGF-β inhibitorC” (Rigel Pharmaceuticals, Inc., priority 2015, dated 2020).

Assays:
[1] = test system: GDF8 signaling (GDF pSMAD, MPC11); assay: AlphaScreen SureFire SMAD3 (p-Ser423/425) assay, inhibition of GDF8 signaling; type: cell-based; conditions: Mus musculus, MPC-11, p-SMAD-3 (Ser423/425) in cell lysate after GDF8 stimulation
[2] = test system: TGF-β signaling (TGF-β pSMAD, MPC-11); assay: AlphaScreen SureFire SMAD3 (p-Ser423/425) assay, inhibition of TGF-β signaling; type: cell-based; conditions: Mus musculus, p-SMAD-3 (Ser423/425) in cell lysate after TGF-β stimulation
Outline: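 Phosphorylation of endogenous SMAD-3 at Ser423/425 was quantified with an AlphaScreen SureFire assay. Cells were exposed to compound for about 10 minutes, stimulated with TGF-β, and lysed in 1× Lysis Buffer. Lysate (5 μL) was combined with Reaction/Activation buffer plus Acceptor beads for 2 hours, then Donor beads for 1½ hours, and read on a plate reader.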

SMILES	IC50 [1] [nM]	IC50 [2] [nM]
Cc1c(F)ccc(-c2nn3c(c2-c2ccc4[nH]ncc4c2)CCC3)c1F [Compound 167, 5-(2-(2,4-Difluoro-3-methylphenyl)-5,6-dihydro-4H-pyrrolo[1,2-b]pyrazol-3-yl)-1H-indazole]	209	538
Fc1ccc(-c2nn3c(c2-c2ccc4[nH]ncc4c2)CCC3)cc1OC(F)(F)F [Compound 150, 5-(2-(4-Fluoro-3-trifluoromethoxyphenyl)-5,6-dihydro-4H-pyrrolo[1,2-b]pyrazol-3-yl)-1H-indazole]	310	1320
COc1cccc(-c2nn3c(c2-c2ccc4[nH]ncc4c2)CCC3)c1 [Compound 27, 5-(2-(3-Methoxyphenyl)-5,6-dihydro-4H-pyrrolo[1,2-b]pyrazol-3-yl)-1H-indazole]	206	847
COc1c(F)ccc(-c2nn3c(c2-c2ccc4ncsc4c2)CCC3)c1F [Compound 162, 6-(2-(2,4-Difluoro-3-methoxyphenyl)-5,6-dihydro-4H-pyrrolo[1,2-b]pyrazol-3-yl)benzo[d]thiazole]	555	2220
Fc1ccc(-c2nn3c(c2-c2ccc4[nH]ncc4c2)CCC3)cc1F [Compound 83, 5-(2-(3,4-Difluorophenyl)-5,6-dihydro-4H-pyrrolo[1,2-b]pyrazol-3-yl)-1H-indazole]	70.4	517
COc1c(F)ccc(-c2nn3c(c2-c2ccc4[nH]ncc4c2)CCC3)c1F [Compound 161, 5-(2-(2,4-Difluoro-3-methoxyphenyl)-5,6-dihydro-4H-pyrrolo[1,2-b]pyraozl-3-yl)-1H-indazole]	626	1440
Fc1ccc(-c2nn3c(c2-c2ccc4ncnn4c2)CCC3)cc1Cl [Compound 148, 6-(2-(3-Chloro-4-fluorophenyl)-5,6-dihydro-4H-pyrrolo[1,2-b]pyrazol-3-yl)-[1,2,4]triazolo[1,5-a]pyridine]	98.4	311
FC(F)(F)Oc1cccc(-c2nn3c(c2-c2ccc4cn[nH]c4c2)CCC3)c1 [Compound 123, 6-(2-(3-Trifluoromethoxyphenyl)-5,6-dihydro-4H-pyrrolo[1,2-b]pyrazol-3-yl)-1H-indazole]	85.3	190
FC(F)(F)c1cccc(-c2nn3c(c2-c2ccc4cn[nH]c4c2)CCC3)c1 [Compound 32, 6-(2-(3-Trifluoromethylphenyl)-5,6-dihydro-4H-pyrrolo[1,2-b]pyrazol-3-yl)-1H-indazole]	45.1	292
Fc1ccc(-c2nn3c(c2-c2ccc4cn[nH]c4c2)CCC3)cc1F [Compound 84, 6-(2-(3,4-Difluorophenyl)-5,6-dihydro-4H-pyrrolo[1,2-b]pyrazol-3-yl)-1H-indazole]	326	1610
Fc1cc(F)c(-c2nn3c(c2-c2ccc4ncnn4c2)CCC3)cc1F [Compound 119, 6-(2-(2,4,5-Trifluorophenyl)-5,6-dihydro-4H-pyrrolo[1,2-b]pyrazol-3-yl)-[1,2,4]triazolo[1,5-a]pyridine]	30.9	141
COc1ccc(F)c(-c2nn3c(c2-c2ccc4nccnc4c2)CCC3)c1 [Compound 165, 6-(2-(2-Fluoro-5-methoxyphenyl)-5,6-dihydro-4H-pyrrolo[1,2-b]pyrazol-3-yl)quinoxaline]	7.2	29
Fc1ccc(-c2nn3c(c2-c2ccc4[nH]ncc4c2)CCC3)cc1Cl [Compound 142, 5-(2-(3-Chloro-4-fluorophenyl)-5,6-dihydro-4H-pyrrolo[1,2-b]pyrazol-3-yl)-1H-indazole]	153	344
Clc1ccccc1-c1nn2c(c1-c1ccc3ncnn3c1)CCC2 [Compound 121, 6-(2-(2-Chlorophenyl)-5,6-dihydro-4H-pyrrolo[1,2-b]pyrazol-3-yl)-[1,2,4]triazolo[1,5-a]pyridine]	340	949
FC(F)(F)Oc1cccc(-c2nn3c(c2-c2ccc4sncc4c2)CCC3)c1 [Compound 128, 5-(2-(3-Trifluoromethoxyphenyl)-5,6-dihydro-4H-pyrrolo[1,2-b]pyrazol-3-yl)benzo[d]isothiazole]	439	677
Fc1ccc(Cl)cc1-c1nn2c(c1-c1ccc3ncnn3c1)CCC2 [Compound 178, 6-(2-(5-Chloro-2-fluorophenyl)-5,6-dihydro-4H-pyrrolo[1,2-b]pyrazol-3-yl)-[1,2,4]triazolo[1,5-a]pyridine]	13.2	31.1
Fc1ccccc1-c1nn2c(c1-c1ccc3cn[nH]c3c1)CCC2 [Compound 134, 6-(2-(2-Fluorophenyl)-5,6-dihydro-4H-pyrrolo[1,2-b]pyrazol-3-yl)-1H-indazole]	901	6060
Fc1ccc(-c2nn3c(c2-c2ccc4ncsc4c2)CCC3)cc1 [Compound 14, 6-(2-(4-Fluorophenyl)-5,6-dihydro-4H-pyrrolo[1,2-b]pyrazol-3-yl)benzo[d]thiazole]	295	976
FC(F)(F)c1cccc(-c2nn3c(c2-c2ccc4nccnc4c2)CCC3)c1 [Compound 58, 6-(2-(3-Trifluoromethylphenyl)-5,6-dihydro-4H-pyrrolo[1,2-b]pyrazol-3-yl)quinoxaline]	309	863
Fc1ccc(-c2nn3c(c2-c2ccc4cn[nH]c4c2)CCC3)c(F)c1 [Compound 92, 6-(2-(2,4-Difluorophenyl)-5,6-dihydro-4H-pyrrolo[1,2-b]pyrazol-3-yl)-1H-indazole]	228	1100

Next, values leading:

IC50 [1] [nM]	IC50 [2] [nM]	SMILES
69.5	140	Clc1cccc(-c2nn3c(c2-c2ccc4nccn4c2)CCC3)c1 [Compound 25, 6-(2-(3-Chlorophenyl)-5,6-dihydro-4H-pyrrolo[1,2-b]pyrazol-3-yl)imidazo[1,2-a]pyridine]
179	852	FC(F)(F)c1cccc(-c2nn3c(c2-c2ccc4cn[nH]c4c2)OCC3)c1 [Compound 71, 7-(1H-Indazol-6-yl)-6-(3-trifluoromethylphenyl)-2,3-dihydropyrazolo[5,1-b]oxazole]
610	4460	COc1cccc(-c2nn3c(c2-c2ccc4ncccc4c2)CCC3)c1 [Compound 48, 6-(2-(3-Methoxyphenyl)-5,6-dihydro-4H-pyrrolo[1,2-b]pyrazol-3-yl)quinoline]
22.6	57.9	Cc1cccc(-c2nn3c(c2-c2ccc4ncn(C)c4c2)OCC3)c1 [Compound 38, 7-(1-Methyl-1H-benzo[d]imidazol-6-yl)-6-(m-tolyl)-2,3-dihydropyrazolo[5,1-b]oxazole]
332	1100	Fc1ccc(-c2nn3c(c2-c2ccc4ncsc4c2)OCC3)cc1 [Compound 68, 7-(Benzo[d]thiazol-6-yl)-6-(4-fluorophenyl)-2,3-dihydropyrazolo[5,1-b]oxazole]
133	685	Fc1ccc(-c2nn3c(c2-c2ccc4nccn4c2)CCC3)c(F)c1Cl [Compound 157, 6-(2-(3-Chloro-2,4-difluorophenyl)-5,6-dihydro-4H-pyrrolo[1,2-b]pyrazol-3-yl)imidazo[1,2-a]pyridine]
112	331	Cc1cccc(-c2nn3c(c2-c2ccc4nccn4c2)OCCC3)c1 [Compound 42, 3-(Imidazo[1,2-a]pyridin-6-yl)-2-(m-tolyl)-6,7-dihydro-5H-pyrazolo[5,1-b][1,3]oxazine]
234	1510	Cc1cccc(-c2nn3c(c2-c2ccc4ncccc4c2)CCC3)c1 [Compound 46, 6-(2-(m-Tolyl)-5,6-dihydro-4H-pyrrolo[1,2-b]pyrazol-3-yl)quinoline]
924	2150	Fc1ccccc1-c1nn2c(c1-c1ccc3nccn3c1)CCC2 [Compound 135, 6-(2-(2-Fluorophenyl)-5,6-dihydro-4H-pyrrolo[1,2-b]pyrazol-3-yl)imidazo[1,2-a]pyridine]
389	1160	Fc1ccc(-c2nn3c(c2-c2ccc4nccn4c2)CCC3)cc1OC(F)(F)F [Compound 151, 6-(2-(4-Fluoro-3-trifluoromethoxyphenyl)-5,6-dihydro-4H-pyrrolo[1,2-b]pyrazol-3-yl)imidazo[1,2-a]pyridine]
23.3	106	Cc1cccc(-c2nn3c(c2-c2ccc4nccn4c2)OCC3)c1 [Compound 44, 7-(imidazo[1,2-a]pyridin-6-yl)-6-(m-tolyl)-2,3-dihydropyrazolo[5,1-b]oxazole]
129	926	Clc1cccc(-c2nn3c(c2-c2ccc4ncccc4c2)CCC3)c1 [Compound 49, 6-(2-(3-Chlorophenyl)-5,6-dihydro-4H-pyrrolo[1,2-b]pyrazol-3-yl)quinoline]
66.2	373	Fc1cc(F)c(-c2nn3c(c2-c2ccc4nccn4c2)CCC3)cc1F [Compound 115, 6-(2-(2,4,5-Trifluorophenyl)-5,6-dihydro-4H-pyrrolo[1,2-b]pyrazol-3-yl)imidazo[1,2-a]pyridine]
47.7	203	Cc1cccc(-c2nn3c(c2-c2ccc4nccnc4c2)OCC3)c1 [Compound 52, 7-(Quinoxalin-6-yl)-6-(m-tolyl)-2,3-dihydropyrazolo[5,1-b]oxazole]
65	369	Cc1cccc(-c2nn3c(c2-c2ccc4nccn4c2)CCC3)c1 [Compound 18, 6-(2-(m-Tolyl)-5,6-dihydro-4H-pyrrolo[1,2-b]pyrazol-3-yl)imidazo[1,2-a]pyridine]
132	927	Fc1cccc(-c2nn3c(c2-c2ccc4ncnn4c2)CCC3)c1 [Compound 109, 6-(2-(3-Fluorophenyl)-5,6-dihydro-4H-pyrrolo[1,2-b]pyrazol-3-yl)-[1,2,4]triazolo[1,5-a]pyridine]
